Experimental data published in PubChem BioAssay AID2060599 (Molecular Pharmacology Branch, DTP, NCI, 2025).
“And” between values parts separate entries of the source, which are not always exact repeats. Identical values can stand only once. One block for each molecule: values may come before it.

Tested on: 817829-284-R-J1-PDC complex spheroids, viability
Assay: Anticancer human tumor 817829-284-R-J1-PDC patient-derived colon adenocarcinoma cell line growth inhibition [CLK]
Details: for viability, T/C: stronger effect = lower value
How it was run: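 Multi-cell-type spheroids combined patient-derived tumor cells with HUVEC endothelial cells and human mesenchymal stem cells. Paired agents were dosed in half-log steps down from about clinical Cmax, or from 10 microM where Cmax was unknown.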

[1] = curve of first compound, second compound 0.0316 µM
[2] = curve of first compound, second compound 0.1 µM
[3] = curve of first compound, second compound 0.316 µM
[4] = curve of first compound, second compound 1 µM
[5] = curve of first compound, second compound 3.16 µM
[6] = curve of first compound, second compound 10 µM
[7] = second compound 0.0316 µM, first compound 0.0316 µM
[8] = second compound 0.0316 µM, first compound 0.1 µM
[9] = second compound 0.0316 µM, first compound 0.316 µM
[10] = second compound 0.0316 µM, first compound 1 µM
[11] = second compound 0.0316 µM, first compound 3.16 µM
[12] = second compound 0.0316 µM, first compound 10 µM
[13] = second compound 0.1 µM, first compound 0.0316 µM
[14] = second compound 0.1 µM, first compound 0.1 µM
[15] = second compound 0.1 µM, first compound 0.316 µM
[16] = second compound 0.1 µM, first compound 1 µM
[17] = second compound 0.1 µM, first compound 3.16 µM
[18] = second compound 0.1 µM, first compound 10 µM
[19] = second compound 0.316 µM, first compound 0.0316 µM
[20] = second compound 0.316 µM, first compound 0.1 µM
[21] = second compound 0.316 µM, first compound 0.316 µM
[22] = second compound 0.316 µM, first compound 1 µM
[23] = second compound 0.316 µM, first compound 3.16 µM
[24] = second compound 0.316 µM, first compound 10 µM
[25] = second compound 1 µM, first compound 0.0316 µM
[26] = second compound 1 µM, first compound 0.1 µM
[27] = second compound 1 µM, first compound 0.316 µM
[28] = second compound 1 µM, first compound 1 µM
[29] = second compound 1 µM, first compound 3.16 µM
[30] = second compound 1 µM, first compound 10 µM
[31] = second compound 3.16 µM, first compound 0.0316 µM
[32] = second compound 3.16 µM, first compound 0.1 µM
[33] = second compound 3.16 µM, first compound 0.316 µM
[34] = second compound 3.16 µM, first compound 1 µM
[35] = second compound 3.16 µM, first compound 3.16 µM
[36] = second compound 3.16 µM, first compound 10 µM
[37] = second compound 10 µM, first compound 0.0316 µM
[38] = second compound 10 µM, first compound 0.1 µM
[39] = second compound 10 µM, first compound 0.316 µM
[40] = second compound 10 µM, first compound 1 µM
[41] = second compound 10 µM, first compound 3.16 µM
[42] = second compound 10 µM, first compound 10 µM
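Also: spheroids exposed to the agents for seven days before readout.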

IC50 (curve of compound): 11.9 nM and 24.8 nM
SMILES: COc1c(OCCCN2CCOCC2)ccc2c3n(c(=NC(=O)c4cnc(N)nc4)nc12)CCN3
viability, T/C (compound 0.00316 µM): 96% and 133% | viability, T/C (compound 0.01 µM): 52% and 68.5% | viability, T/C (compound 0.0316 µM): 29% and 55.5% | viability, T/C (compound 0.1 µM): 18.8% and 16.3% | viability, T/C (compound 0.316 µM): 7.17% and 4.92% | viability, T/C (compound 1 µM): 2.06% and 2.01%

IC50 (curve of compound): 626 nM
SMILES: CC1COCCN1c1cc(C2(S(C)(=N)=O)CC2)nc(-c2ccnc3[nH]ccc23)n1 (configuration not stated)
viability, T/C (compound 0.0316 µM): 63.5% | viability, T/C (compound 0.1 µM): 99.9% | viability, T/C (compound 0.316 µM): 62.4% | viability, T/C (compound 1 µM): 39% | viability, T/C (compound 3.16 µM): 9.17% | viability, T/C (compound 10 µM): 4.99%

Further lines, the molecule ahead of its results:

SMILES: COc1cccc2c1C(=O)c1c(O)c3c(c(O)c1C2=O)CC(O)(C(=O)CO)CC3OC1CC(N)C(O)C(C)O1 (configuration not stated) + CN1CCN(c2cc(C(=O)Nc3cc4cc(-c5cnn(C)c5)ccc4cn3)ccn2)CC1
IC50 [1]: < 31.6 nM | IC50 [2]: < 31.6 nM | IC50 [3]: < 31.6 nM | IC50 [4]: < 31.6 nM | IC50 [5]: < 31.6 nM | IC50 [6]: < 31.6 nM | viability, T/C [7]: 19.4% | viability, T/C [8]: 15.6% | viability, T/C [9]: 3.99% | viability, T/C [10]: 0.16% | viability, T/C [11]: 0.37% | viability, T/C [12]: 1.02% | viability, T/C [13]: 18.2% | viability, T/C [14]: 13.4% | viability, T/C [15]: 2.32% | viability, T/C [16]: 0.22% | viability, T/C [17]: 0.51% | viability, T/C [18]: 0.96% | viability, T/C [19]: 1.68% | viability, T/C [20]: 0.69% | viability, T/C [21]: 0.24% | viability, T/C [22]: 0.33% | viability, T/C [23]: 0.63% | viability, T/C [24]: 0.97% | viability, T/C [25]: 0.12% | viability, T/C [26]: 0.29% | viability, T/C [27]: 0.26% | viability, T/C [28]: 0.59% | viability, T/C [29]: 0.53% | viability, T/C [30]: 0.72% | viability, T/C [31]: 0.14% | viability, T/C [32]: 0.16% | viability, T/C [33]: 0.24% | viability, T/C [34]: 0.38% | viability, T/C [35]: 0.38% | viability, T/C [36]: 0.06% | viability, T/C [37]: 0.04% | viability, T/C [38]: 0.07% | viability, T/C [39]: 0.11% | viability, T/C [40]: 0.06% | viability, T/C [41]: 0.1% | viability, T/C [42]: 0.08%

SMILES: C=C(F)C(=O)N1CCN(c2nc(OCC3CCCN3C)nc3c2CCN(c2cccc4cccc(Cl)c24)C3)CC1CC#N (configuration not stated) + CNC(=O)c1ccc(Nc2nc(OC3CCCC3)c3c(-c4ccc5nc(C)oc5c4)c[nH]c3n2)c(OC)c1
IC50 [1]: < 31.6 nM | IC50 [2]: < 31.6 nM | IC50 [3]: < 31.6 nM | IC50 [4]: < 31.6 nM | IC50 [5]: < 31.6 nM | IC50 [6]: < 31.6 nM | viability, T/C [7]: 19.9% | viability, T/C [8]: 42.3% | viability, T/C [9]: 23.4% | viability, T/C [10]: 23.3% | viability, T/C [11]: 17.6% | viability, T/C [12]: 0.08% | viability, T/C [13]: 34.9% | viability, T/C [14]: 23% | viability, T/C [15]: 26.5% | viability, T/C [16]: 23.6% | viability, T/C [17]: 16.1% | viability, T/C [18]: 0.15% | viability, T/C [19]: 25.3% | viability, T/C [20]: 25.3% | viability, T/C [21]: 22.7% | viability, T/C [22]: 24.5% | viability, T/C [23]: 10.8% | viability, T/C [24]: 0.08% | viability, T/C [25]: 22.4% | viability, T/C [26]: 24.6% | viability, T/C [27]: 28% | viability, T/C [28]: 24.4% | viability, T/C [29]: 5.74% | viability, T/C [30]: 0.07% | viability, T/C [31]: 20.7% | viability, T/C [32]: 26.8% | viability, T/C [33]: 22.5% | viability, T/C [34]: 21% | viability, T/C [35]: 3.26% | viability, T/C [36]: 0.18% | viability, T/C [37]: 21.7% | viability, T/C [38]: 14.1% | viability, T/C [39]: 20.6% | viability, T/C [40]: 28.5% | viability, T/C [41]: 3.94% | viability, T/C [42]: 0.22%

SMILES: Nc1ccn(C2OC(CO)C(O)C2(F)F)c(=O)n1 (configuration not stated)
viability, T/C (compound 0.0316 µM): 4.87% and 7.45% | viability, T/C (compound 0.1 µM): 5.51% and 7.25% | viability, T/C (compound 0.316 µM): 4.21% and 7.26% | viability, T/C (compound 1 µM): 3.92% and 6.91% | viability, T/C (compound 3.16 µM): 3.8% and 5.67% | viability, T/C (compound 10 µM): 2.53% and 4.69% | IC50 (curve of compound): < 31.6 nM

SMILES: C#Cc1c(F)ccc2cc(O)cc(-c3ncc4c(N5CC6CCC(C5)N6)nc(OCC56CCCN5CC(F)C6)nc4c3F)c12 (configuration not stated)
viability, T/C (compound 0.0316 µM): 126% and 105% | viability, T/C (compound 0.1 µM): 74% and 131% | viability, T/C (compound 0.316 µM): 116% and 80.9% | viability, T/C (compound 1 µM): 81.9% and 122% | viability, T/C (compound 3.16 µM): 60% and 100% | viability, T/C (compound 10 µM): 62.3% and 79.4% | IC50 (curve of compound): > 10000 nM
